Test results as given in PubChem BioAssay AID248 (DTP/NCI, 2004).
Values joined by “and” are separate entries in the source; they are usually repeats but may differ in a detail not shown here. Identical values can stand only once. Inconclusive results and toxic doses are left out. Rule as the data show it: active = T/C of 150% or more; inactive = T/C below 125%.

Test system: L1210 leukemia ip in BDF1 mice, survival T/C
Experiment: NCI In Vivo Anticancer Drug Screen. Data for tumor model L1210 Leukemia (intraperitoneal) in B6D2F1 (BDF1) mice
Conditions: endpoint: mean survival time, higher = longer survival
Summary of the method: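 Tumor cells were implanted, animals were treated, and survival was followed. The result divides the treated measurement by the vehicle-control measurement.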

[1] = dose: 100.0 mg/kg/injection, schedule: Q01DX001 (ip), vehicle: saline
[2] = dose: 200.0 mg/kg/injection, schedule: Q01DX001 (ip), vehicle: saline
[3] = dose: 400.0 mg/kg/injection, schedule: Q01DX001 (ip), vehicle: saline
[4] = dose: 100.0 mg/kg/injection, schedule: Q04DX003 (ip), vehicle: saline with Tween-80
[5] = dose: 200.0 mg/kg/injection, schedule: Q04DX003 (ip), vehicle: saline with Tween-80
[6] = dose: 100.0 mg/kg/injection, schedule: Q01DX001 (ip), vehicle: carboxymethylcellulose (CMC)
[7] = dose: 200.0 mg/kg/injection, schedule: Q01DX001 (ip), vehicle: carboxymethylcellulose (CMC)
[8] = dose: 400.0 mg/kg/injection, schedule: Q01DX001 (ip), vehicle: carboxymethylcellulose (CMC)
[9] = dose: 400.0 mg/kg/injection, schedule: Q04DX003 (ip), vehicle: saline with Tween-80
[10] = dose: 100.0 mg/kg/injection, schedule: Q01DX001 (ip), vehicle: Klucel (hydroxypropylcellulose) (HPC)
[11] = dose: 200.0 mg/kg/injection, schedule: Q01DX001 (ip), vehicle: Klucel (hydroxypropylcellulose) (HPC)

Measured: T/C

NC(=O)c1ncn(C2CC(CO)C(O)C2O)c1N (stereo not drawn)
inactive: [1] 100 % of control | [2] 110 % of control | [3] 104 % of control

CSC(N(C)C)=[N+](C)C
inactive: dose: 15.0 mg/kg/injection, schedule: Q01DX Z (ip), vehicle: methylcellulose (MC) 101 % of control | dose: 30.0 mg/kg/injection, schedule: Q01DX Z (ip), vehicle: methylcellulose (MC) 105 % of control | dose: 60.0 mg/kg/injection, schedule: Q01DX Z (ip), vehicle: methylcellulose (MC) 105 % of control | dose: 60.0 mg/kg/injection, schedule: Q01DX Z (oral), vehicle: methylcellulose (MC) 95 % of control | [4] 100 % of control | dose: 120.0 mg/kg/injection, schedule: Q01DX Z (ip), vehicle: methylcellulose (MC) 103 % of control | dose: 120.0 mg/kg/injection, schedule: Q01DX Z (oral), vehicle: methylcellulose (MC) 97 % of control | [5] 107 % of control

COc1ccc(NC(=O)Oc2ccc(Br)cc2Br)c(Cl)c1
inactive: dose: 50.0 mg/kg/injection, schedule: Q01DX009 (ip), vehicle: saline + alcohol 87 % of control | dose: 100.0 mg/kg/injection, schedule: Q01DX009 (ip), vehicle: saline + alcohol 87 % of control | dose: 200.0 mg/kg/injection, schedule: Q01DX009 (ip), vehicle: saline + alcohol 97 % of control

O=C(Cc1cccc2ccccc12)N/N=C/c1ccc(Cl)cc1Cl
inactive: dose: 100.0 mg/kg/injection, schedule: Q01DX009 (ip), vehicle: saline with Tween-80 96 % of control | dose: 200.0 mg/kg/injection, schedule: Q01DX009 (ip), vehicle: saline with Tween-80 93 % of control

O=[N+]([O-])c1ccc(-n2cnnn2)cc1
inactive: [6] 94 % of control | [7] 100 % of control | [8] 91 % of control

CC(=O)OCC1OC(N2C(=O)NC(=O)C3C4OC(=O)OC4C32)C(OC(C)=O)C1OC(C)=O (stereo not drawn)
inactive: dose: 25.0 mg/kg/injection, schedule: Q01DX005 (ip), vehicle: other 108 % of control | dose: 50.0 mg/kg/injection, schedule: Q01DX005 (ip), vehicle: other 100 % of control | dose: 100.0 mg/kg/injection, schedule: Q01DX005 (ip), vehicle: other 106 % of control | dose: 200.0 mg/kg/injection, schedule: Q01DX005 (ip), vehicle: other 106 % of control | dose: 400.0 mg/kg/injection, schedule: Q01DX005 (ip), vehicle: other 108 % of control

O=S(=O)(F)c1cc(C[P+](c2ccccc2)(c2ccccc2)c2ccccc2)ccc1Cl
inactive: dose: 6.25 mg/kg/injection, schedule: Q01DX009 (ip), vehicle: saline with Tween-80 105 % of control | dose: 12.5 mg/kg/injection, schedule: Q01DX009 (ip), vehicle: saline with Tween-80 102 % of control | dose: 25.0 mg/kg/injection, schedule: Q01DX009 (ip), vehicle: saline with Tween-80 103 % of control

Cc1ccc(S(=O)(=O)OCC2OC(n3cnc4c(NC=O)ncnc43)C(OC=O)C2OC=O)cc1 (stereo not drawn)
inactive: dose: 50.0 mg/kg/injection, schedule: Q01DX009 (ip), vehicle: gum acacia 115 % of control | dose: 100.0 mg/kg/injection, schedule: Q01DX005 (ip), vehicle: saline 105 % of control | dose: 100.0 mg/kg/injection, schedule: Q01DX009 (ip), vehicle: gum acacia 104 % of control | dose: 200.0 mg/kg/injection, schedule: Q01DX009 (ip), vehicle: gum acacia 100 % of control

CC(C)C1(NC(=O)C2C=C3c4cccc5[nH]cc(c45)CC3N(C)C2)OC2(O)C3CCCN3C(=O)C(Cc3ccccc3)N2C1=O (stereo not drawn)
inactive: dose: 50.0 mg/kg/injection, schedule: Q01DX001 (ip), vehicle: carboxymethylcellulose (CMC) 93 % of control | dose: 50.0 mg/kg/injection, schedule: Q01DX001 (ip), vehicle: other 93 % of control | [6] 98 % of control | dose: 100.0 mg/kg/injection, schedule: Q01DX001 (ip), vehicle: other 88 % of control | [1] 102 % of control | dose: 200.0 mg/kg/injection, schedule: Q01DX001 (ip), vehicle: other 93 % of control | [2] 96 % of control and 89 % of control | dose: 400.0 mg/kg/injection, schedule: Q01DX001 (ip), vehicle: other 96 % of control

O=C(NCCNC(=O)c1cccc([N+](=O)[O-])c1O)c1cccc([N+](=O)[O-])c1O
inactive: [4] 96 % of control | [5] 95 % of control | [9] 90 % of control

CN(C)C(=S)Oc1ccc(S(=O)(=O)F)c(Cl)c1Cl
inactive: dose: 25.0 mg/kg/injection, schedule: Q04DX002 (ip), vehicle: saline with Tween-80 92 % of control | dose: 50.0 mg/kg/injection, schedule: Q04DX002 (ip), vehicle: saline with Tween-80 92 % of control | dose: 100.0 mg/kg/injection, schedule: Q04DX002 (ip), vehicle: saline with Tween-80 86 % of control

O=[N+]([O-])c1cccc(N=Cc2ccccc2O)c1
inactive: [10] 93 % of control | [11] 88 % of control | dose: 400.0 mg/kg/injection, schedule: Q01DX001 (ip), vehicle: Klucel (hydroxypropylcellulose) (HPC) 88 % of control

CC(=O)NC12CC3CC(CC(C)(C3)C1)C2
inactive: [10] 103 % of control | [11] 106 % of control

CCC[CH2][Pb]([CH2]CCC)([CH2]CCC)[O]C(C)=O
inactive: [1] 101 % of control | [2] 95 % of control

CC(C)NC(=O)Nc1cccc(OC(=O)NC(C)(C)C)c1
inactive: [4] 88 % of control | [5] 91 % of control | [9] 89 % of control

C/C=C\C(=O)O
inactive: dose: 100.0 mg/kg/injection, schedule: Q01DX009 (ip), vehicle: saline 101 % of control | dose: 200.0 mg/kg/injection, schedule: Q01DX009 (ip), vehicle: saline 96 % of control

COc1ccc(OC)c(NC(=O)N(C)CCC#N)c1
inactive: dose: 100.0 mg/kg/injection, schedule: Q01DX009 (ip), vehicle: Klucel (hydroxypropylcellulose) (HPC) 106 % of control | dose: 200.0 mg/kg/injection, schedule: Q01DX009 (ip), vehicle: Klucel (hydroxypropylcellulose) (HPC) 101 % of control | dose: 400.0 mg/kg/injection, schedule: Q01DX009 (ip), vehicle: Klucel (hydroxypropylcellulose) (HPC) 106 % of control

Oc1ccc2ccccc2c1N=Nc1ccc(F)cc1
inactive: dose: 25.0 mg/kg/injection, schedule: Q01DX015 (ip), vehicle: saline 101 % of control | dose: 50.0 mg/kg/injection, schedule: Q01DX015 (ip), vehicle: saline 96 % of control | dose: 60.0 mg/kg/injection, schedule: Q01DX015 (ip), vehicle: carboxymethylcellulose (CMC) 109 % of control | [6] 92 % of control | dose: 100.0 mg/kg/injection, schedule: Q01DX009 (ip), vehicle: carboxymethylcellulose (CMC) 95 % of control | dose: 100.0 mg/kg/injection, schedule: Q01DX015 (ip), vehicle: saline 96 % of control | dose: 100.0 mg/kg/injection, schedule: Q04DX003 (ip), vehicle: carboxymethylcellulose (CMC) 114 % of control | dose: 120.0 mg/kg/injection, schedule: Q01DX015 (ip), vehicle: carboxymethylcellulose (CMC) 104 % of control | [7] 92 % of control | dose: 200.0 mg/kg/injection, schedule: Q01DX009 (ip), vehicle: carboxymethylcellulose (CMC) 95 % of control | dose: 200.0 mg/kg/injection, schedule: Q01DX015 (ip), vehicle: saline 101 % of control | dose: 200.0 mg/kg/injection, schedule: Q04DX003 (ip), vehicle: carboxymethylcellulose (CMC) 97 % of control | dose: 240.0 mg/kg/injection, schedule: Q01DX015 (ip), vehicle: carboxymethylcellulose (CMC) 95 % of control | [8] 89 % of control | dose: 400.0 mg/kg/injection, schedule: Q01DX015 (ip), vehicle: saline 101 % of control | dose: 400.0 mg/kg/injection, schedule: Q04DX003 (ip), vehicle: carboxymethylcellulose (CMC) 100 % of control | dose: 480.0 mg/kg/injection, schedule: Q01DX015 (ip), vehicle: carboxymethylcellulose (CMC) 96 % of control

Nc1cnccc1NCC(O)c1ccccc1 (stereo not drawn)
inactive: [1] 95 % of control | [2] 101 % of control | [3] 86 % of control

COc1cc(N=C(N)N=C(N)N)c2ncccc2c1
inactive: dose: 75.0 mg/kg/injection, schedule: Q01DX001 (ip), vehicle: carboxymethylcellulose (CMC) 97 % of control

COC(=O)C(NC(=O)C(C)NC(=O)c1cnc2ccccc2n1)C(C)C (stereo not drawn)
inactive: [1] 91 % of control | [2] 98 % of control
